Key:
mouse P-gp = experiment: nanoelectrospray MS / IM-MS of P-gp pre-incubated with drug compounds (Example 1); assay type: binding; conditions: 2-3 mg/ml P-gp pre-incubated with 1-10 molar equivalents of test compound; FIG. 1
Description: P-glycoprotein (P-gp) was expressed and purified as reported previously (Aller et al, Science, 2009, 323, 1718-1722). In this method, P-gp was expressed in P. pastoris strain and purified as a his-tagged protein from the membranes solubilised with Triton X-100. Buffer was exchanged by washing with buffer containing 20 mM imidazole, 0.04% sodium cholate and 0.0675% β-DDM. The protein was concentrated, subjected to gel filtration chromatography and assayed for purity by SDS-PAGE.
An aliquot (30 μl) of mouse P-gp solution (9 mg/ml) in 0.07% β-DDM, 0.04% sodium cholate, 100 mM NaCl, 0.2 mM TCEP, 20 mM Hepes, pH 7.5 was buffer-exchanged using a membrane filter and diluted 3-fold in 300 mM ammonium acetate, pH 7.5. Spectra of P-gp with drug compounds were obtained by first pre-incubating 2-3 mg/ml P-gp protein with 1-10 molar equivalents of the test compound for 15 minutes to overnight prior to nanoelectrospray ionisation mass spectrometry.
Mass spectrometry measurements were carried out on a Synapt HDMS (Waters, Manchester, UK) quadrupole-S2 ion-trap-IM-MS instrument modified for transmission and detection of ions at high m/z ratios. Aliquots of complex-containing solutions (2 μL) in detergent were introduced via gold-coated nanoflow electrospray capillaries. […]

P-gp = experiment: native mass spectrometry of P-gp with CsA, nucleotides and lipid (Example 2); assay type: binding; conditions: for number of nucleotides bound to P-gp: 1 mM MgCl2 plus 50 μM ATP or ATPγS, FIG. 2c
Description: His-tagged P-glycoprotein was expressed in P.pastoris and purified according to a protocol described previously (see Aller et al, supra). Lipids were purchased from Avanti Polar Lipids.
Before analysis, P-gp was buffer exchanged into 200 mM ammonium acetate pH 7 supplemented with 0.02% n-dodecyl-β-D-maltoside (DDM), using micro BioSpin-6 devices (Bio-Rad). Lipids were first prepared at 2 mM in chloroform and then diluted to 20 μM in 200 mM ammonium acetate pH 7 supplemented with 0.02% DDM. Cyclosporin was first dissolved at 8 mM in methanol and then diluted to 5-100 μM in 200 mM ammonium acetate pH 7 supplemented with 0.02% DDM. MS spectra were acquired on a Q-TOF2 (Micromass) modified for the transmission and detection of high mass complexes. Samples were introduced in the ion-source via gold-coated nanoflow capillaries. […] Micelle transmission was enhanced by increasing the Pirani pressure to 30 mbar. […] Spectra were analysed with Massign software.

CC(C)[C@H]1NC(=O)c2c[se]c(n2)[C@@H](C(C)C)NC(=O)c2c[se]c(n2)[C@@H](C(C)C)NC(=O)c2c[se]c1n2 [QZ59Se, RRR]
effect of drug binding on the mass spectrum of P-gp (mouse P-gp): altered the mass spectrum of the membrane protein

Nc1ncnc2c1ncn2[C@@H]1O[C@H](COP(=O)(O)OP(=O)(O)OP(O)(O)=S)[C@@H](O)[C@H]1O [ATPγS]
number of nucleotides bound to P-gp (P-gp): one or two

cardiolipin 14:1(3)-15:1
number of molecules bound to P-gp already bound to one ATP or ATPγS (P-gp; first incubated with ATP or ATPγS, then with cardiolipin or CsA, FIG. 3a, b): one or two

Nc1ncnc2c1ncn2[C@@H]1O[C@H](COP(=O)(O)OP(=O)(O)OP(=O)(O)O)[C@@H](O)[C@H]1O [ATP, adenosine triphosphate]
number of nucleotides bound to P-gp (P-gp): one or two

From US9536718B2, “Detection of membrane protein-therapeutic agent complexes by mass spectrometry” (Oxford University Innovation Limited, priority 2011, dated 2017)
